Test results reported in article PMC9230573 (Frontiers in Pharmacology, 2022).
Where a SMILES comes first, the peptide text is derived from it. Bridges are numbered along the chain shown (N, C = ends).

Target: human CaV2.2 (α1B, β3, α2δ1) (Homo sapiens, UniProt Q00975)
Assay: cell-based

Sequence of human CaV2.2 (α1B, β3, α2δ1) (Q00975 whole entry, looked up): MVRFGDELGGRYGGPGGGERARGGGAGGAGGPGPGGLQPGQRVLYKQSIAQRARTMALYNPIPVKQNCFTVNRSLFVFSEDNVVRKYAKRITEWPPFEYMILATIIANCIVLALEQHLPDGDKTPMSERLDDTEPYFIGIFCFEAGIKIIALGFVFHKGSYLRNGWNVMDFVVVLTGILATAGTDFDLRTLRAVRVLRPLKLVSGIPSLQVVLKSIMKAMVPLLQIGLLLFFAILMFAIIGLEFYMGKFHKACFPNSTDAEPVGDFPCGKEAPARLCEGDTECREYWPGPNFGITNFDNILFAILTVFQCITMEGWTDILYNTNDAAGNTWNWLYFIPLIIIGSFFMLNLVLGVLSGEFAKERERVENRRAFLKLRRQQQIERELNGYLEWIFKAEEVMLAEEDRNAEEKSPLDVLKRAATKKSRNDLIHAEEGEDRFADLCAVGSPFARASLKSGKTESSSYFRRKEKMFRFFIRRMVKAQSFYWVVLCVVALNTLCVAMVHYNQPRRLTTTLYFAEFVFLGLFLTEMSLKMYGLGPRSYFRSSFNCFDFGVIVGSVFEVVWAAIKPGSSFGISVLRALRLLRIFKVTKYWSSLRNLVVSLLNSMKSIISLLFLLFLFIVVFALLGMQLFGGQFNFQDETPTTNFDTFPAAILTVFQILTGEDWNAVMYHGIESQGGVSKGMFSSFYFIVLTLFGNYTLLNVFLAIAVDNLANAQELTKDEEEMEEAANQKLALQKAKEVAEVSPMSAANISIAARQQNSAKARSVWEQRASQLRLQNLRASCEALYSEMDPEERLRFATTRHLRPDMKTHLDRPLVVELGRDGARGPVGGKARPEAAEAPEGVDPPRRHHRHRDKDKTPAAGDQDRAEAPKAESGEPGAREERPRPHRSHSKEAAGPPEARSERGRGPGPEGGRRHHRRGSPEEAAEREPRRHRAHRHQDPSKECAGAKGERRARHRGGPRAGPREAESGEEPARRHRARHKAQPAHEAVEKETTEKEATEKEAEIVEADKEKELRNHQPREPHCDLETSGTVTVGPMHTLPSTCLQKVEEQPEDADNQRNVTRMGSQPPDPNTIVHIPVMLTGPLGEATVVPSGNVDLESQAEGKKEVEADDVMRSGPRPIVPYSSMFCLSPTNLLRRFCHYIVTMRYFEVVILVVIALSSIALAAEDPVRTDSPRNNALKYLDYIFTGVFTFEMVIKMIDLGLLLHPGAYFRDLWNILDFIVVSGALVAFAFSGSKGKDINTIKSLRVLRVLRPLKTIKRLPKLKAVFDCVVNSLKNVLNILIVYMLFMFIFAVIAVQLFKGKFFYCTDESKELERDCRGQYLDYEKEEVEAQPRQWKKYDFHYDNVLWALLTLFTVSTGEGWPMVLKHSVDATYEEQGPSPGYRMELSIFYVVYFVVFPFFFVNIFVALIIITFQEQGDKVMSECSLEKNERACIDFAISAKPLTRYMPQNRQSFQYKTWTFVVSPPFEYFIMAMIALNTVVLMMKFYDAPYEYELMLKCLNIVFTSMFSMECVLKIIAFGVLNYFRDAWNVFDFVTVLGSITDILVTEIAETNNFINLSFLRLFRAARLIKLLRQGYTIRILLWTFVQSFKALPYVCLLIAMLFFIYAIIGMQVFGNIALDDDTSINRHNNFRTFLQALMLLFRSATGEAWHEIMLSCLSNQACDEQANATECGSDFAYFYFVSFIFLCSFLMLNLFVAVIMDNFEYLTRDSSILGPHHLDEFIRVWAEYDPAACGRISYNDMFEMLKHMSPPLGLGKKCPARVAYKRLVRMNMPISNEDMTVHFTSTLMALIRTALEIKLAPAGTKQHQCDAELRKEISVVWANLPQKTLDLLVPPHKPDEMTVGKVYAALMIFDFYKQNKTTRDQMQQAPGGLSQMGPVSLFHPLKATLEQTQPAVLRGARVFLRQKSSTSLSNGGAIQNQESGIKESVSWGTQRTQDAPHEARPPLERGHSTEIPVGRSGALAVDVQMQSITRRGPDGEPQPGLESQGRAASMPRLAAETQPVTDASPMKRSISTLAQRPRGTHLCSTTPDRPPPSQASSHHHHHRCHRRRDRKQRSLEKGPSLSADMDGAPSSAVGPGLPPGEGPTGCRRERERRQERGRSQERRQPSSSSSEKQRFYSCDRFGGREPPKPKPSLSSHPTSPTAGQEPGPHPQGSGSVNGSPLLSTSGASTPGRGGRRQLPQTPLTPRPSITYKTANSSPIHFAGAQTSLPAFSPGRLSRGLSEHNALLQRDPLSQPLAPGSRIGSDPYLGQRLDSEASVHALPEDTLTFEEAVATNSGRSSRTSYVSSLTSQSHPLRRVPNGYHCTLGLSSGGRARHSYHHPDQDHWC

SMILES: CC[C@H](C)[C@@H]1NC(=O)[C@@H]2CCCN2C(=O)[C@@H]2CSSC[C@H](NC(=O)[C@@H](N)CC(N)=O)C(=O)N[C@@H](CSSC[C@@H](C(N)=O)NC(=O)[C@H](CC(N)=O)NC(=O)[C@H](Cc3ccccc3)NC(=O)[C@H](CCCNC(=N)N)NC(=O)[C@H](CO)NC(=O)[C@H](Cc3ccc(O)cc3)NC(=O)[C@H](CC(=O)O)NC1=O)C(=O)N[C@@H](CCSC)C(=O)N[C@@H](Cc1ccccc1)C(=O)N[C@@H](Cc1c[nH]cn1)C(=O)N[C@@H]([C@@H](C)O)C(=O)N2 [Vt1.27] (H-NCCMFHTCPIDYSRFNC-NH2; disulfide 2-8, 3-17)
- IC50: 0.398 µM
- half-maximum inactivation (V0.5, inact): −69.0 ± 1.0 mV
- shift of half-maximum inactivation (V0.5, inact): 3 mV
- τoff (off kinetics of inhibition): 2.7 ± 0.15 s
- τon (on kinetics of inhibition): 4.5 ± 0.48 s
